# Source: paper PMC7878868, “Mechanisms of feedback inhibition and sequential firing of active sites in plant aspartate transcarbamoylase” (Nature Communications, 2021)
# Substitutions are numbered along the chain they refer to. Names may count otherwise. “And” between values parts separate entries of the source, which are not always exact repeats. Identical values can stand only once.
# B1: Arabidopsis aspartate transcarbamoylase, construct spanning aa 82-390 (atATC) (enzyme, Arabidopsis thaliana, UniProt P49077 82-390, looked up)
# chain: FELSDVIEGKQFDREMLSAIFDVAREMEKIEKSSSQSEILKGYLMATLFYEPSTRTRLSFESAMKRLGGEVLTTENAREFSSAAKGETLEDTIRTVEGYSDIIVMRHFESGAARKAAATANIPVINAGDGPGEHPTQALLDVYTIQSEIGKLDGISVALVGDLANGRTVRSLAYLLAKFKDVKIYFVSPEIVKMKDDIKDYLTSSGVEWEESSDLMEVASKCDVVYQTRIQRERFGERLDLYEAARGKYIVDKDLLGVMQKKAIIMHPLPRLDEITADVDADPRAAYFRQAKNGLFIRMALLKLLLVGW
# notes: Aspartate transcarbamoylase (ATC; pyrB; At3g20330) of Arabidopsis thaliana, aa 82-390 of the 390 aa precursor protein with an N-terminal chloroplast transit peptide; amplified from cDNA; No cleavage of the tag is described, and the text speaks of the size of purified atATC 'excluding the 2.6 kDa fusion tag', so the tag was probably kept; It is probably a His tag (Ni-sepharose purification); The …
# B2: atATC mutant F161A (enzyme, Arabidopsis thaliana, UniProt P49077 82-390, looked up)
# chain: B1 chain with F80A
# notes: Aspartate transcarbamoylase (ATC; pyrB; At3g20330) of Arabidopsis thaliana, aa 82-390 of the 390 aa precursor protein, with F161 replaced by Ala; Made by site-directed mutagenesis of the atATC construct; same tag and purification as m1; also called atATC-F161A; source: E. coli BLR(DE3)-pLysS, purified (Ni-sepharose, size-exclusion chromatography on Superdex 75); not shown: fusion tag (2.6 kDa)
# How the values were obtained:
# [1] = target: T1, atATC (Arabidopsis ATC aa 82–390) WT (Arabidopsis thaliana, UniProt P49077); experiment: Isothermal titration calorimetry (ITC), atATC WT; assay type: binding; conditions: site 1
# T1 construct: 2.6 kDa fusion tag (modified pET28a); made in house; host or cells: E. coli BLR(DE3)-pLysS
# T1 sequence (P49077 82-390): B1 chain
# Method: (§1) Experiments were performed in an Auto-iTC200 calorimeter (MicroCal, Malvern-Panalytical) at 25 °C with a 0.2 ml reaction cell and 30–40 µM protein solution (in protomer units) in the cell. […] All solutions were in GF buffer and degassed and mixed in the cell by stirring at 750 rpm. Data analysis was performed with Origin 7 (OriginLab) using a general three-site cooperative and a non-cooperative binding model, restricted to one or two ligand binding sites when convenient[24],[62],[63]. Non-linear least-squares regression analysis was employed to estimate dissociation constants for the interaction of the different ligands with ATC.
# [2] = target: T2, atATC WT (Arabidopsis thaliana, UniProt P49077); experiment: Colorimetric ATC activity assay, atATC WT; assay type: biochemical; conditions: 10 mM Asp
# T2 construct: 2.6 kDa fusion tag (modified pET28a); made in house; host or cells: E. coli BLR(DE3)-pLysS
# T2 sequence (P49077 82-390): B1 chain
# Method: (§2) Activity was assayed by a colorimetric method[64] adapted to a 96-well plate format. […] Reagent B is light sensitive and was stored at 4 °C in the dark. The color reagents were gently mixed and stored at 4 °C in the dark until added to the sample. Reaction tubes were closed, boiled at 95 °C for 15 min, and kept in the dark for 30 min before measuring the absorbance at 450 nm in a Tecan infinite m200 microplate reader (Tecan). […] Data analysis was done with GraphPad. […] Protein concentration in the assay was 0.3 µM (0.01 mg ml^−1) both for WT and F161A.
# [3] = target: T3, atATC-F161A (Arabidopsis thaliana, UniProt P49077, F161A); experiment: Colorimetric ATC activity assay, atATC F161A; assay type: biochemical; conditions: for Activity F161A: 10 mM Asp
# T3 construct: 2.6 kDa fusion tag (modified pET28a); made in house; host or cells: E. coli BLR(DE3)-pLysS
# T3 sequence (P49077 82-390 F161A): B1 chain with F80A
# Method: as §2
# [4] = system: Arabidopsis seedlings; experiment: Seedling assay in liquid culture with PALA (fresh weight, root length); assay type: in vivo, Arabidopsis thaliana; conditions: for fresh weight compared to untreated seedlings / root length relative to untreated seedlings / root length, average: 7 days; for fresh weight compared to untreated seedlings: n = 3 (3 times 10 seedlings); for root length relative to untreated seedlings / root length, average: n = 30; for root length, average: untreated 2.68 ± 0.49 cm; for Freshweight, single replicates (10 seedlings): source data of Figure 3a; for Freshweight, average (10 seedlings): 0 mM PALA 0.1699 g
# Method: For DNA isolation, tissue collection and phenotypic inspection, wild-type Col-0 and transgenic Arabidopsis thaliana (L.) Heynh. plants (ecotype Columbia) were used throughout. Plants were grown in standardized soil (ED73 Einheitserde, Humuswerke Patzer) soil under long day conditions (120 μmol quanta m^−2 s^−1 in a […] regime, temperature 22 °C, humidity 60%). Prior to germination, seeds were incubated for 24 h in the dark at 4 °C for imbibition. […] The liquid cultures were maintained on a shaker at 100 rpm under the same light and temperature conditions as soil-grown plants. Leaf extract of wild-type and mutants was prepared by homogenizing leaf material in extraction buffer (50 mM HEPES-KOH pH 7.2, 5 mM MgCl2, 2 mM phenylmethylsulfonyl fluoride (PMSF) on ice. The homogenous extract was centrifuged at 20,000g for 10 min at 4 °C. The supernatant was collected and stored on ice until use.
# [5] = target: T3, atATC-F161A; experiment: biochemical; assay type: binding
# Method: as §1
# [6] = system: plant ATCs; design: method as in PMID 14479231, doi:10.1093/jxb/40.10.1121; conditions: cited from earlier work
# [7] = substrate: NC(=O)OP(=O)(O)O; experiment: purified protein, by the assay type; conditions: other: WT, CP variable, 10 mM Asp, absence of UMP; pH 8.3
# [8] = target: the molecule itself; experiment: SEC-MALS; 400 ul of purified protein at 1.4 mg/ml on Superdex 200 10/300 in GF buffer (20 mM Tris pH 7.0, 0.1 M NaCl, 2% glycerol, 0.2 mM TCEP), 0.5 ml/min; self-association: homotrimer
# [9] = target: the molecule itself; experiment: crystal structure; X-ray crystal structures of the trimer (with UMP, apo, with PALA, with PALA + CP, with CP; F161A with UMP or PALA); sitting-drop vapor diffusion at room temperature, PEG 3350 conditions, data at 100 K
# [10] = substrate: NC(=O)OP(=O)(O)O; experiment: Colorimetric ATC activity assay, atATC F161A; assay type: biochemical, Arabidopsis thaliana; conditions: other: F161A, CP variable, 10 mM Asp; pH 8.3
# Method: Activity was assayed by a colorimetric method[64] adapted to a 96-well plate format[24]. […] Reagent B is light sensitive and was stored at 4 °C in the dark. The color reagents were gently mixed and stored at 4 °C in the dark until added to the sample. Reaction tubes were closed, boiled at 95 °C for 15 min, and kept in the dark for 30 min before measuring the absorbance at 450 nm in a Tecan infinite m200 microplate reader (Tecan). […] Data analysis was done with GraphPad. In the absence of inhibitors, WT kinetics obey Michaelis-Menten equation v = [Vmax·X/K0.5 + X], where X is substrate concentration and K0.5 is the substrate concentration at which the initial rate (v) is one-half of the maximum velocity (Vmax)]. […] Protein concentration in the assay was 0.3 µM (0.01 mg ml^−1) both for WT and F161A.
molecule,measurement,setting,value
"O=C(O)C[C@H](NC(=O)CP(=O)(O)O)C(=O)O [PALA, N-(phosphonacetyl)-L-aspartate]",-TΔS Site 1,[1]; ITC,-21.6 kcal/mol
same,ΔG Site 1,[1]; ITC,-8.5 kcal/mol
same,ΔH Site 1,[1]; ITC,13.1 kcal/mol
same,Kd,"[1]; KD Site 1, ITC, 25 °C",590 nM and 600 nM
same,Activity WT,"[2]; 0.01 mM PALA, [CP] 0.16 mM",17.11 nmol / min μg and 10.69 nmol / min μg and 14.77 nmol / min μg
same,Activity WT,"[2]; 0.01 mM PALA, [CP] 0.31 mM",20.84 nmol / min μg and 20.81 nmol / min μg and 18.28 nmol / min μg
same,Activity WT,"[2]; 0.01 mM PALA, [CP] 0.63 mM",27.62 nmol / min μg and 26.91 nmol / min μg and 26.59 nmol / min μg
same,Activity WT,"[2]; 0.01 mM PALA, [CP] 1.25 mM",40.50 nmol / min μg and 40.46 nmol / min μg and 40.29 nmol / min μg
same,Activity WT,"[2]; 0.01 mM PALA, [CP] 2.50 mM",50.62 nmol / min μg and 53.39 nmol / min μg and 49.84 nmol / min μg
same,Activity WT,"[2]; 0.01 mM PALA, [CP] 5.00 mM",66.15 nmol / min μg and 65.77 nmol / min μg and 55.96 nmol / min μg
same,Activity WT,"[2]; 0.1 mM PALA, [CP] 0.31 mM",4.77 nmol / min μg and 4.92 nmol / min μg and 5.38 nmol / min μg
same,Activity WT,"[2]; 0.1 mM PALA, [CP] 0.63 mM",10.55 nmol / min μg and 10.43 nmol / min μg and 10.56 nmol / min μg
same,Activity WT,"[2]; 0.1 mM PALA, [CP] 1.25 mM",19.60 nmol / min μg and 18.57 nmol / min μg and 27.14 nmol / min μg
same,Activity WT,"[2]; 0.1 mM PALA, [CP] 2.50 mM",27.12 nmol / min μg and 29.01 nmol / min μg and 31.29 nmol / min μg
same,Activity WT,"[2]; 0.1 mM PALA, [CP] 5.00 mM",33.74 nmol / min μg and 33.21 nmol / min μg
same,Activity F161A,"[3]; 0.01 mM PALA, [CP] 0.15 mM",4.41 nmol / min μg and 6.29 nmol / min μg and 5.34 nmol / min μg
same,Activity F161A,"[3]; 0.01 mM PALA, [CP] 0.31 mM",5.13 nmol / min μg and 6.44 nmol / min μg and 9.47 nmol / min μg
same,Activity F161A,"[3]; 0.01 mM PALA, [CP] 0.63 mM",25.34 nmol / min μg and 31.98 nmol / min μg and 21.75 nmol / min μg
same,Activity F161A,"[3]; 0.01 mM PALA, [CP] 1.25 mM",39.80 nmol / min μg and 37.97 nmol / min μg and 40.98 nmol / min μg
same,Activity F161A,"[3]; 0.01 mM PALA, [CP] 2.50 mM",38.56 nmol / min μg and 36.28 nmol / min μg and 37.57 nmol / min μg
same,Activity F161A,"[3]; 0.1 mM PALA, [CP] 1.25 mM",11.15 nmol / min μg and 10.75 nmol / min μg and 7.03 nmol / min μg
same,Activity F161A,"[3]; 0.1 mM PALA, [CP] 2.50 mM",5.52 nmol / min μg and 9.09 nmol / min μg and 9.11 nmol / min μg
same,sensitivity of enzyme activity to PALA compared to WT,[3]; F161A,more sensitive
same,fresh weight compared to untreated seedlings,[4]; 0.2 mM PALA,59%
same,root length relative to untreated seedlings,[4]; 0.2 mM PALA,36%
same,"root length, average",[4]; 0.2 mM PALA,0.96 ± 0.22 cm and 0.962 cm
same,"Freshweight, single replicates (10 seedlings)",[4]; 0.2 mM PALA,0.1006 g and 0.0950 g and 0.1032 g
same,"Freshweight, average (10 seedlings)",[4]; 0.2 mM PALA,0.0996 g
same,fresh weight compared to untreated seedlings,[4]; 0.4 mM PALA,23%
same,root length relative to untreated seedlings,[4]; 0.4 mM PALA,8%
same,"root length, average",[4]; 0.4 mM PALA,0.21 ± 0.09 cm and 0.213 cm
same,"Freshweight, single replicates (10 seedlings)",[4]; 0.4 mM PALA,0.0435 g and 0.0329 g and 0.0417 g
same,"Freshweight, average (10 seedlings)",[4]; 0.4 mM PALA,0.0394 g
same,chlorosis of seedlings,[4]; PALA-treated seedlings,Chlorosis was also apparent
same,Kd,[5],120 nM
same,"N, number of binding sites per protein trimer according to the ligand binding model","[5]; ITC, F161A",1
same,fold higher affinity of F161A than WT,"[5]; ITC, F161A versus WT",5 fold
same,-TΔS Site 1,"[5]; ITC, F161A, site 1",-20.4 kcal/mol
same,ΔG Site 1,"[5]; ITC, F161A, site 1",-9.4 kcal/mol
same,ΔH Site 1,"[5]; ITC, F161A, site 1",11.0 kcal/mol
O=c1ccn([C@@H]2O[C@H](COP(=O)(O)OP(=O)(O)O)[C@@H](O)[C@H]2O)c(=O)[nH]1 [UDP],inhibition of plant ATCs,[6],not inhibitors
O=c1ccn([C@@H]2O[C@H](COP(=O)(O)OP(=O)(O)OP(=O)(O)O)[C@@H](O)[C@H]2O)c(=O)[nH]1 [UTP],inhibition of plant ATCs,[6],not inhibitors
B1,K0.5,[7],0.46 ± 0.10 mM
same,stoichiometry N,[8],3
B2,binding result,[9],binds
same,K0.5,[10],0.62 ± 0.13 mM
